Test results from patent US20240002437A1, “COMPOSITIONS AND METHODS OF TREATING INFLAMMATORY LUNG DISEASES” (priority 2020, published 2024).
Entries after “also recorded” stand apart in the source; their conditions may differ.

Tests used:
TRPV4 [1] = conditions: literature (Alvarez, Circ Res 2006); cited from earlier work
PAEC [2] = assay: Mitochondrial membrane potential (TMRM) in PAEC; format: cell-based, ovine; conditions: 4αPDD 10 μM, 3 h
Procedure: (§1) Primary cultures of ovine pulmonary arterial endothelial cells (PAEC) were isolated as described previously (L. K. Kelly, Am J Physiol Lung Cell Mol Physiol, 286(5), L984-91 (2004)). Briefly, cells were maintained in Dulbecco's modified Eagle medium (DMEM) supplemented with 10% fetal calf serum (Hyclone, Logan, UT), antibiotics/antimycotic (500 IU Penicillin, 500 μg/ml Streptomycin, 1.25 μg/ml Amphotericin B; MediaTech, Herndon, VA) at 37° C. in a humidified atmosphere with 5% CO2 and 95% air. Cells were used for experiments between passages 9-14, seeded at ˜50% confluence, and utilized when fully confluent.
Mitochondrial membrane potential was determined using TMRM (tetramethylrhodamine methyl ester perchlorate, Molecular Probes, Eugene, OR). Briefly, after each experiment, cells were washed with fresh media, incubated in media containing TMRM (50 nM), for 30 min at 37° C. in dark conditions, then subjected to fluorescence microscopy using an excitation of 548 nm and an emission at 575 nm. An Olympus IX51 microscope equipped with a CCD camera (Hamamatsu Photonics) was used for acquisition of fluorescent images and the average fluorescent intensities were quantified using ImagePro Plus version 5.0 imaging software (Media Cybernetics).

PAEC [3] = assay: Cellular peroxynitrite levels (DHR 123 oxidation) in PAEC; format: cell-based, ovine; conditions: 4αPDD
Procedure: as §1
The level of cell peroxynitrite was determined by the oxidation of dihydrorhodamine (DHR) 123 (EMD Millipore, Billerica, MA) to rhodamine 123, as previously described (S. Aggarwal, J Cell Physiol, 226(12), 3104-13 (2011)). Briefly, cultured PAEC were treated with or without TGF-β1 (5 ng/ml, 8 h) or GW9662 (5 μM, 24 h). The cells were collected and the cell pellet was then treated with PEG-Catalase (100 U, 30 min) to reduce H2O2 dependent DHR 123 oxidation. DHR 123 (5 μM, 30 min) was added to the cell pellet in phenol red-free media and the fluorescence of rhodamine 123 measured using a Fluoroskan Ascent Microplate Fluorometer with excitation at 485 nm and emission at 545 nm. Fluorescent values were normalized to the protein levels in each sample.

PAEC [4] = assay: Mitochondrial ROS levels (MitoSOX Red) in PAEC; format: cell-based, ovine; conditions: 4αPDD 10 μM, 3 h
Procedure: as §1
MitoSOX™ Red (Molecular Probes), a fluorogenic dye for selective detection of ROS levels in the mitochondria of live cells was used. Briefly, cells were washed with fresh media, and then incubated in media containing MitoSOX Red (2 μM), for 30 min at 37° C. in dark conditions then subjected to fluorescence microscopy at an excitation of 510 nm and an emission at 580 nm. An Olympus IX51 microscope equipped with a CCD camera (Hamamatsu Photonics) was used for acquisition of fluorescent images. The average fluorescent intensities (to correct for differences in cell number) were quantified using ImagePro Plus version 5.0 imaging software (Media Cybernetics, Rockville, MD).

TRPV4 [5] = assay: Cytosolic Ca2+ concentration ([Ca2+]cyt), fura-2/AM loaded PAEC; format: cell-based, ovine; conditions: 4αPDD 10 μM
Procedure: as §1
PAEC were grown at 50-60% confluence on 25-mm-diameter circular glass coverslips. […] The fluorescence emission (at 520 nm) was captured with an EM-CC camera (Evolve; Photometric, Tucson, AZ) and analyzed using NIS Elements 3.2 software (Nikon). [Ca^2+]cyt is expressed as 340/380 fluorescence ratio within an area of interest in the peripheral area of a cell recorded every 2 s. […] [Ca^2+]cyt was calculated using the following equation: [Ca^2+]cyt=Kd×(Sf2/Sf1)×(R−Rmin)/(Rmax−R). Kd (225 nM) is the dissociation constant of the Ca2+-fura-2 complex; and Sf2 and Sf1 and Rmin and Rmax were calculated using a standard protocol (G. Grynkiewicz, J Biol Chem, 260(6), 3440-50 (1985)). […]

In the case of `CCCCCCCCCC(=O)O[C@@H]1[C@@H](C)[C@@]2(O)[C@@H](C=C(CO)C[C@@]3(O)C(=O)C(C)=C[C@@H]23)[C@@H]2C(C)(C)[C@]12OC(=O)CCCCCCCCC` [4αPDD, 4α-Phorbol-12,13 didecanoate], the “lung injury on 4αPDD exposure” value (TRPV4 [1]) is given as “leads to Ca^2+ entry-dependent acute lung injury, disruption of the lung barrier, and alveolar flooding”, the “mitochondrial membrane potential (TMRM)” value (PAEC [2]) is given as “decrease in the mitochondrial membrane potential” and the cellular peroxynitrite levels (PAEC [3]) is given as “increases”. The “mitochondrial ROS levels (MitoSOX red fluorescence)” value (PAEC [4]) was “increases in mitochondrial ROS levels” and the “cytosolic free Ca2+ concentration ([Ca2+]cyt)” value (TRPV4 [5]) was “transient increase of [Ca^2+]cyt; also recorded: induced a transient increase”.
